The target in series [1] is T1, CDK9/CycT1 (Homo sapiens, UniProt P50750).
T1 construct: purchased SignalChem
The experiment in a line: ADP-Glo kinase assay. Type of series: biochemical. On the procedure: ADP-Glo assay kit was purchased from Promega and the CDK9/CycT1 protein and PDKtide substrate were purchased from SignalChem. […] The reaction was started by pre-incubating 4 μL of protein (20 nM), 2 μL of substrate (100 μM), and 2 μL of serial diluted drug in 1× assay buffer (50 mM HEPES, 3 mM MgCl2, 3 mM MnCl2, and 1 mM DTT) for 30 minutes. After pre-incubating, 4 μL of ATP (1 μM) was added to each well and incubated for an additional 90 minutes. The ADP-Glo Reagent (10 μL) and Kinase Detection Reagent (20 μL) were added to each well and incubated as recommended by Promega. The reaction was quantified by measuring luminescence and the IC50 was calculated using GraphPad Prism software.
In general terms: In ADP-Glo the light output rises with the ADP produced.

For series [2], the system named is RWPE-1 Normal Prostate Cells. The series can be described thus: CellTiter-Glo 2D cell viability assay in normal prostate cells. Type of series: cell-based. How it is done:
(§1) Multiplexing the LDH-Glo Cytotoxicity Assay and CellTiter-Glo 2D Cell Viability Assay. […] Change in toxicity was measured using the LDH-Glo Cytotoxicity Assay by combining 50 μL diluted samples with 50 μL LDH Detection Reagent and recording luminescence after 1 hour incubation. After samples were removed for LDH measurement, an equal volume of CellTiter Glo 2D Reagent was added to the remaining cell suspension and luminescence was recorded after 30-minute incubation period.
(In general: In ATP-based viability assays light output follows the ATP content of the culture.)

The test system of series [3] is RWPE-1 Normal Prostate Cells. The experiment in a line: LDH-Glo cytotoxicity assay in normal prostate cells. Type of series: cell-based. The note with it: Homo sapiens, 72 hours. On the procedure: as §1
Series [4] concerns 22Rv1. The series can be described thus: 2D CellTiter-Glo cell viability assay. Type of series: cell-based. The note with it: Homo sapiens; 22Rv1, 72 hours. On the procedure: (§2) CellTiter-Glo® 2.0 Luminescent cell viability assay reagent was purchased from Promega and 22Rv1 and LASCPC-01 cell lines were purchased from ATCC. […] An equal volume of CellTiter-Glo 2D Reagent was added to the cell suspensions and luminescence was recorded after 30-minute incubation period. […] FIG. 2 illustrates cellular antiproliferative efficacy of a benchmark CDK9 inhibitor AD-4573 on six prostate cancer cell lines over various concentrations.
(§3) CellTiter-Glo® 2.0 Luminescent cell viability assay reagent was purchased from Promega and 22Rv1, LASCPC-01, C4-2, C4-2B and NCI-H660, DU-145, PC-3 and LNCap cell lines were obtained from ATCC and a clinical core facility at Huntsman Cancer Institute. […] The results of cell viability were obtained and IC50 values were calculated (see Table 5, below) showing sub-micromolar cell killing of these prostate cancer cells.

The subject of series [5] is DU-145. The experiment in a line: 2D CellTiter-Glo cell viability assay. The note with it: Homo sapiens; DU-145, 72 hours. Type of series: cell-based. On the procedure: as §2, §3
Series [6] concerns LASCPC-01. The series can be described thus: 2D CellTiter-Glo cell viability assay. Type of series: cell-based. The note with it: 72 h, LASCPC-01, 72 hours. How it is done:
as §2, §3

The subject of series [7] is LNCap. The series can be described thus: 2D CellTiter-Glo cell viability assay. Type of series: cell-based. The note with it: Homo sapiens, 72 hours. On the procedure:
as §2, §3

Series [8] has as its system NCI-H660. The experiment in a line: 2D CellTiter-Glo cell viability assay. Type of series: cell-based. The note with it: NCI-H660, 72 hours. How it is done: as §2, §3
Series [9] has as its system PC-3. The experiment in a line: 2D CellTiter-Glo cell viability assay. Type of series: cell-based. The note with it: Homo sapiens, PC-3, 72 h. On the procedure: as §2, §3
Series [10] concerns C4-2. The series can be described thus: 2D CellTiter-Glo cell viability assay. Type of series: cell-based, human. The note with it: Homo sapiens, C4-2, 72 h. How it is done: as §3
Series [11] concerns C4-2B. The series can be described thus: 2D CellTiter-Glo cell viability assay. Type of series: cell-based. The note with it: 72 h. How it is done: as §3

T1 sequence (P50750 whole entry): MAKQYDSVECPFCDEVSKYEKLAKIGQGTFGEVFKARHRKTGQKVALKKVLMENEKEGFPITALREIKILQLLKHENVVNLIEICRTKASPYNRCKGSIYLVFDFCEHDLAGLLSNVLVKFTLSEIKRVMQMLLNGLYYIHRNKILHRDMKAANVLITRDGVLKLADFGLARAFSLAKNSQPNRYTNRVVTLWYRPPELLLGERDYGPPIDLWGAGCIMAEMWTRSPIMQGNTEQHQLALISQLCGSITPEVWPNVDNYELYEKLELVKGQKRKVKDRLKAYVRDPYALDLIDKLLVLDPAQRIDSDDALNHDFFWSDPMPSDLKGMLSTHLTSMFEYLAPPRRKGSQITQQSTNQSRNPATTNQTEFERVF
T1 sequence (O60563 whole entry partner): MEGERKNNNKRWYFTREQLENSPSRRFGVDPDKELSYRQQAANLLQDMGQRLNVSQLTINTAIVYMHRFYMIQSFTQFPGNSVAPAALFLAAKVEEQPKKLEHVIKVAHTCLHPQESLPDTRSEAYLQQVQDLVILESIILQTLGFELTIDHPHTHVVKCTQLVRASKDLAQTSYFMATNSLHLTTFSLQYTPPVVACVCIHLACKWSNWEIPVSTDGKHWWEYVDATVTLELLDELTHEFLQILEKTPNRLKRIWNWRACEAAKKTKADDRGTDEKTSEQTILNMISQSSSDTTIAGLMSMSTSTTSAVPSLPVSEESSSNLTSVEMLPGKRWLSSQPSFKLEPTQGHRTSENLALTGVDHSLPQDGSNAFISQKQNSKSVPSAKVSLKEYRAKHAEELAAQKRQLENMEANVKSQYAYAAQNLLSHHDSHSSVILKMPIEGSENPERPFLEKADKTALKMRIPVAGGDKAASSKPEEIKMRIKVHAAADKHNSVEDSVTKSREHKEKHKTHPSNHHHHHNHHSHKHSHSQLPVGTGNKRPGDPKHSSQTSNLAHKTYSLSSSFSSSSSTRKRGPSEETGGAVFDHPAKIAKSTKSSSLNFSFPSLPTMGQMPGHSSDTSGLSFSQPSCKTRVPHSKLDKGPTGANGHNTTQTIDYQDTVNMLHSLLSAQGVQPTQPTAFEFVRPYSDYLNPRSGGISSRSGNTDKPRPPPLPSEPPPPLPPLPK

The term IC50 denotes the concentration needed to halve the response being measured. Higher therefore signals weaker potency. In series [1], `CC(C)c1c2cc(-c3ccnc(N[C@H]4C[C@@H]5CCC4C5)n3)ccc2nn1C` (stereo in doubt) [Compound I-13, N-((1R,2S,4R)-bicyclo[2.2.1]heptan-2-yl)-4-(3-isopropyl-2-methyl-2H-indazol-5-yl)pyrimidin-2-amine] gave an IC50 of under 50 nM. `CC(C)c1c2cc(-c3ccnc(N[C@H]4C[C@@H]5CCC4C5)n3)cnc2nn1C` (stereo in doubt) [Compound I-14, N-((1R,2S,4R)-bicyclo[2.2.1]heptan-2-yl)-4-(3-isopropyl-2-methyl-2H-pyrazolo[3,4-b]pyridin-5-yl)pyrimidin-2-amine] came in with an IC50 in series [1] of under 50 nM. With `CC(=O)N[C@@H]1CCC[C@H](C(=O)Nc2cc(-c3cnn4c3CC(C)(C)C4)c(Cl)cn2)C1` [AZD-4573, reference compound], the IC50 in [2] (Homo sapiens, RWPE-1 normal prostate cells, 72 hours) was determined as 8.4 nM; in [3], 151 nM; in series [4] it was 67.1 nM; in series [5], 151 nM; in series [6], 13.5 nM; in series [7], 1150 nM. Also, the IC50 in series [8] turned out to be 0.221 nM; in series [9] it was 400 nM; in [10], 0.237 nM; in series [11], 0.398 nM. In series [2] (RWPE-1), the “toxicity to normal prostate cells” value is reported as “highly toxic”.

In [1], `CC(C)c1c2cc(-c3ccnc(N[C@@H]4CC[C@H](N)C4)n3)ccc2nn1C` [Compound I-1, (1S,3R)-[3-[4-(3-isopropyl-2-methylindazol-5-yl)pyrimidin-2-yl]aminocyclopentan-1-yl]-1,3-diamine] returned an IC50 of under 50 nM.

On to `CC(C)c1c2nc(-c3ccnc(N[C@H]4CC[C@H](N)C4)n3)ccc2nn1C` [Compound I-3, (1S,3S)-[3-[4-[3-isopropyl-2-methylpyrazolo[4,3-b]pyridin-5-yl]pyrimidin-2-yl]aminocyclopentan-1-yl]-1,3-diamine], for which, in [1], the IC50 is over 1000 nM.

In series [1], `CC(C)c1c2cc(-c3ccnc(N[C@H]4CC[C@H](N)C4)n3)cc(F)c2nn1C` [Compound I-4, (1S,3S)-[3-[4-(7-fluoro-3-isopropyl-2-methylindazol-5-yl)pyrimidin-2-yl]aminocyclopentan-1-yl]-1,3-diamine] came in with an IC50 of under 50 nM. Take `Cn1cc2cc(-c3ccnc(N[C@H]4CC[C@H](N)C4)n3)ccc2n1` [Compound I-6, (1S,3S)-N^1-(4-(2-methyl-2H-indazol-5-yl)pyrimidin-2-yl)cyclopentane-1,3-diamine]: in series [1], the IC50 was under 50 nM. The same measure, in the same setting: to `CC(C)c1[nH]nc2ccc(-c3ccnc(N[C@H]4CC[C@H](N)C4)n3)cc12` [Compound I-7, (1S,3S)-N^1-(4-(3-isopropyl-2H-indazol-5-yl)pyrimidin-2-yl)cyclopentane-1,3-diamine] belongs under 50 nM; to `Cc1[nH]nc2ccc(-c3ccnc(N[C@H]4CC[C@H](N)C4)n3)cc12` [Compound I-9, (1S,3S)-N^1-(4-(3-methyl-2H-indazol-5-yl)pyrimidin-2-yl)cyclopentane-1,3-diamine], 50 to 100 nM. In the case of `CC(C)c1c2cc(-c3ccnc(N[C@H]4CC[C@H](N)C4)n3)cnc2nn1C` [Compound I-10, (1S,3S)-N^1-(4-(3-isopropyl-2-methyl-2H-pyrazolo[3,4-b]pyridin-5-yl)pyrimidin-2-yl)cyclopentane-1,3-diamine], in [1], the IC50 is under 50 nM. `CC(C)c1nn(C)c2ncc(-c3ccnc(N[C@H]4CC[C@H](N)C4)n3)cc12` [Compound I-11, (1S,3S)-N^1-(4-(3-isopropyl-1-methyl-1H-pyrazolo[3,4-b]pyridin-5-yl)pyrimidin-2-yl)cyclopentane-1,3-diamine]: in series [1], the IC50 is over 1000 nM.

The values above are taken from patent publication US20240150322A1, “CDK9 Inhibitors” (Biolexis Therapeutics, Inc., priority 2022, published 2024).
